Results reported in patent publication US20250059174A1, “Pharmaceutical Compounds and Compositions as C-Kit Kinase Inhibitors” (Enanta Pharmaceuticals, Inc., priority 2023, published 2025).
pEC50, pIC50: −log10 of the molar value.

Experiments:
[1] = target: Recombinant human c-KIT kinase (Homo sapiens (Human), UniProt P10721); assay: c-KIT kinase chemiluminescence assay (ADP-Glo); assay type: biochemical; conditions: ATP 50 μM
Procedure, shortened: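 ADP formed by c-KIT on polyEY over 2 h at RT (after 30 min enzyme preincubation; Tris pH 7.5, MgCl2, BSA, DTT buffer) was detected by ADP-Glo luminescence. IC50 and Hill slope were fitted to control-normalized activity across compound concentrations.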

M-07e cells = assay: M-07e cellular assay (SCF-mediated cell proliferation); assay type: cell-based; conditions: Homo sapiens, 72 hours, CellTiter Glo
Procedure, shortened: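 Readout came from CellTiter Glo after 72 h of compound treatment in SCF (EC90)-stimulated, pre-starved M-07e cells at 37 °C.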

Recombinant human c-KIT kinase, sequence (P10721 26-976): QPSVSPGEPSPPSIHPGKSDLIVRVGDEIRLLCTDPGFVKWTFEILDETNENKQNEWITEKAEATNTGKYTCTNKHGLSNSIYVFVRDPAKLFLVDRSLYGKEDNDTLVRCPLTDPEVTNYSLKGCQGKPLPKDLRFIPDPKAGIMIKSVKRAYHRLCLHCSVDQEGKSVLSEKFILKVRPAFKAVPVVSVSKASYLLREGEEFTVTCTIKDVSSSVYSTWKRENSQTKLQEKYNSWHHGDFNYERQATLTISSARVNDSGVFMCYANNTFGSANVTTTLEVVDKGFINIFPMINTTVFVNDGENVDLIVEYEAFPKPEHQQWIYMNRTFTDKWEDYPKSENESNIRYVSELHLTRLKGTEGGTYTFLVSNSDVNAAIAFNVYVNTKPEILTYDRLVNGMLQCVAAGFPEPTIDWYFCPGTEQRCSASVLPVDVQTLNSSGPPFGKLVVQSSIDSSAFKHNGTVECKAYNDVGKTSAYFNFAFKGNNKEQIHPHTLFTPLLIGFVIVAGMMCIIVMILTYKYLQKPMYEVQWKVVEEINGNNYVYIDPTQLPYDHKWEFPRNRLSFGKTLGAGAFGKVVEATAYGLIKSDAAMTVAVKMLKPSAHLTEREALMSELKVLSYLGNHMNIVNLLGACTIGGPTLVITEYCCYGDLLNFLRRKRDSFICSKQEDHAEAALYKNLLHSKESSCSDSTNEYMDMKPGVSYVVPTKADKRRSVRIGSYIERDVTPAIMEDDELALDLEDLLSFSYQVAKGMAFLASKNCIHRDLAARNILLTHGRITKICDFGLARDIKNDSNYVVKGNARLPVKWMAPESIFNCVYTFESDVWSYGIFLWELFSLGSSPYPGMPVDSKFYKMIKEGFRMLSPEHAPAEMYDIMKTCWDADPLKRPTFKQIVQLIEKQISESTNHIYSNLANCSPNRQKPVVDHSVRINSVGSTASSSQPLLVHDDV

SMILES	pIC50 [1]	pEC50 (M-07e cells)
Cc1ccc(-c2noc([C@H]3C[C@@H]3F)n2)cc1NC(=O)c1cnn2ccc(N3CC(O)(C(F)(F)F)C3)cc12 [Example 180]	> 7.00	> 7.00
CC#Cc1ccc2c(C(=O)Nc3cc(-c4noc([C@H]5C[C@@H]5F)n4)ccc3C)cnn2c1 [Example 132-1]	> 7.00	6.00 to 7.00
Cc1ccc(-c2noc([C@H]3C[C@@H]3F)n2)cc1NC(=O)c1cnn2cc(-c3cn(CC(F)(F)F)nn3)ccc12 [Example 112]	> 7.00	> 7.00
Cc1ncc(-c2nnn(C3CC(F)(F)C3)n2)cc1NC(=O)c1cnn2ccc(N3CC4(C3)CC(O)(C(F)F)C4)cc12 [Example 312]	6.00 to 7.00	> 7.00
CC(=O)Nc1nc(C)c(-c2ccn3ncc(C(=O)Nc4cc(-c5noc([C@H]6C[C@@H]6F)n5)ccc4C)c3c2)c(C)n1 [Example 171-31]	6.00 to 7.00	> 7.00
Cc1nc(Nc2ncc(C(=O)Nc3cc(-c4noc([C@H]5C[C@@H]5F)n4)ccc3C)s2)cc(N2CC3(COC3)C2)n1 [Example 98-1]	> 7.00	> 7.00
Cc1ncc(-c2noc([C@H]3CN(C(=O)C(C)(F)F)[C@@H]3C)n2)cc1NC(=O)c1cnn2ccc(N3CC4(C3)CC(O)(C(F)F)C4)cc12 [Example 281-10]	6.00 to 7.00	6.00 to 7.00
Cc1ncc(-c2noc([C@H]3C[C@H](C(F)(F)F)C3)n2)cc1NC(=O)c1cnn2ccc(N3CC4(COC4)C3)cc12 [Example 281-66]	6.00 to 7.00	> 7.00
Cc1ccc(-c2noc([C@H]3C[C@@H]3F)n2)cc1NC(=O)c1cnn2ccc(-c3cnc(C(F)(F)F)nc3)cc12 [Example 157]	6.00 to 7.00	6.00 to 7.00
CNS(=O)(=O)c1cccc(-c2ncc(C(=O)Nc3cc(-c4noc([C@H]5C[C@@H]5F)n4)ccc3C)o2)c1 [Example 308-30]	6.00 to 7.00	6.00 to 7.00
Cc1ccc(-c2ccn3ncc(C(=O)Nc4cc(-c5noc([C@H]6C[C@@H]6F)n5)ccc4C)c3c2)c(C)n1 [Example 171-15]	> 7.00	> 7.00
Cc1ccc(-c2ncc(OC(F)F)cn2)cc1NC(=O)c1cnn2ccc(N3CC4(COC4)C3)cc12 [Example 338]	6.00 to 7.00	> 7.00
Cc1ccc(-c2noc([C@H]3C[C@@H]3F)n2)cc1NC(=O)c1cnn2ccc(-c3c(C)nn(CC(C)(C)O)c3C)cc12 [Example 152]	> 7.00	> 7.00
Cc1ccc(-c2nnc([C@H]3C[C@@H]3F)o2)cc1NC(=O)c1cnc(-c2ccc3c(c2)CC(=O)N3)o1 [Example 374]	6.00 to 7.00	6.00 to 7.00
Cc1ccc(-c2noc([C@H]3C[C@@H]3F)n2)cc1NC(=O)c1cnc(-c2ccc3c(c2)OCCN3)o1 [Example 308-24]	> 7.00	> 7.00
Cc1ccc(-c2ncc(OC(F)(F)F)cn2)cc1NC(=O)c1cnn2ccc(N3CC4(COC4)C3)cc12 [Example 348]	> 7.00	> 7.00
Cc1sc(-c2noc(C3CN(C(=O)OC(C)(C)C)C3)n2)cc1NC(=O)c1cnn2ccc(N3CC4(COC4)C3)cc12 [Example 281-114]	< 6.00	< 6.00
Cc1ccc(-c2noc(C3CCN(C(=O)[C@H]4C[C@@H]4F)C3)n2)cc1NC(=O)c1cnn2ccc(N3CC4(COC4)C3)cc12 (some centres unmarked) [Example 281-92]	6.00 to 7.00	6.00 to 7.00
Cc1ncc(-c2ccc(OC(F)F)cn2)cc1NC(=O)c1cnn2ccc(N3CC4(C3)CC(O)(C(F)F)C4)cc12 [Example 331]	6.00 to 7.00	> 7.00
Cc1ccc(-c2noc([C@H]3C[C@@H]3F)n2)cc1NC(=O)c1cnc(-c2ccc(N)nc2)o1 [Example 287]	6.00 to 7.00	6.00 to 7.00
Cc1ccc(-c2noc([C@H]3C[C@@H]3F)n2)cc1NC(=O)c1cnn2ccc(-c3cnc(N4CC(F)(F)C4)cc3C)cc12 [Example 171-24]	> 7.00	> 7.00
Cc1ccc(-c2noc([C@H]3C[C@@H]3F)n2)cc1NC(=O)c1cnn2ccc(N3C[C@@H](CS(C)(=O)=O)[C@@H]3C)cc12 [Example 174]	> 7.00	> 7.00
COC(=O)N1CC(c2nc(-c3cc(NC(=O)c4cnn5ccc(N6CC7(C6)CC(O)(C(F)F)C7)cc45)c(C)cc3F)no2)C1 [Example 281-52]	> 7.00	> 7.00

SMILES	pIC50 [1]	pEC50 (M-07e cells)
Cc1ccc(-c2noc([C@H]3C[C@@H]3F)n2)cc1NC(=O)c1cnc(-c2ccc3[nH]c4c(c3c2)CCN(C(=O)OC(C)(C)C)C4)o1 [Example 308-56]	6.00 to 7.00	6.00 to 7.00
Cc1ccc(-c2noc([C@H]3C[C@@H]3F)n2)cc1NC(=O)c1cnn2ccc(N3CCC4(C3)CC4(F)F)cc12 (some centres unmarked) [Example 216]	> 7.00	> 7.00
CCC1(O)CC2(CN(c3ccn4ncc(C(=O)Nc5cc(-c6noc([C@H]7C[C@@H]7F)n6)ccc5C)c4c3)C2)C1 [Example 240]	> 7.00	> 7.00
Cc1ccc(-c2noc([C@H]3C[C@@H]3F)n2)cc1NC(=O)c1cnc2n1C(C)c1ccccc1-2 (some centres unmarked) [Example 102]	> 7.00	6.00 to 7.00
Cc1nc(C)c(-c2ccn3ncc(C(=O)Nc4cc(-c5noc([C@H]6C[C@@H]6F)n5)ccc4C)c3c2)s1 [Example 170]	> 7.00	> 7.00
O=C(Nc1cc(-c2noc([C@H]3C[C@@H]3F)n2)ccc1Cl)c1cnn2ccc(N3CC4(COC4)C3)cc12 [Example 262]	> 7.00	> 7.00
Cc1ccc(-c2noc([C@H]3C[C@@H]3F)n2)cc1NC(=O)c1cnn2ccc(-c3ccc(N4CC(F)(F)C4)nc3C)cc12 [Example 171-17]	> 7.00	> 7.00
Cc1ncc(-c2noc(C3C[C@@H]3C(F)F)n2)cc1NC(=O)c1cnn2ccc(N3CC4(COC4)C3)cc12 (some centres unmarked) [Example 281-60]	6.00 to 7.00	6.00 to 7.00
CCOC(=O)c1cc2cc(-c3ncc(C(=O)Nc4cc(-c5noc([C@H]6C[C@@H]6F)n5)ccc4C)o3)ccc2[nH]1 [Example 308-26]	> 7.00	6.00 to 7.00
Cc1ccc(-c2noc([C@H]3C[C@@H]3F)n2)cc1NC(=O)c1n[nH]c2ncccc12 [Example 40]	< 6.00	< 6.00
Cc1ccc(-c2noc([C@H]3C[C@@H]3F)n2)cc1NC(=O)c1cnn2ccc(N3CC4(C3)CC4(F)F)cc12 [Example 217]	> 7.00	> 7.00
Cc1ccc(-c2noc([C@H]3C[C@@H](OC(F)(F)F)C3)n2)cc1NC(=O)c1cnn2ccc(N3CC4(C3)CC(O)(C(F)F)C4)cc12 [Example 281-21]	> 7.00	> 7.00
Cc1ccc(-c2noc(C3CN(C(=O)NC4CC4)C3)n2)cc1NC(=O)c1cnn2ccc(N3CC4(COC4)C3)cc12 [Example 281-56]	< 6.00	< 6.00
Cc1ccc(-c2noc([C@H]3C[C@@H]3F)n2)cc1NC(=O)c1ccnc2ccccc12 [Example 27]	< 6.00	< 6.00
Cc1ccc(-c2noc([C@H]3C[C@@H]3F)n2)cc1NC(=O)c1cnc(-c2ccc3nc[nH]c3c2)o1 [Example 308-39]	6.00 to 7.00	6.00 to 7.00
COC(=O)N1C[C@@H](c2nc(-c3cnc(C)c(NC(=O)c4cnn5ccc(N6CC7(C6)CC(O)(C(F)F)C7)cc45)c3)no2)[C@@H]1C [Example 281-17]	6.00 to 7.00	> 7.00
Cc1ncc(-c2noc(C3CC(F)(F)C3)n2)cc1NC(=O)c1cnn2ccc(N3CC4(COC4)C3)cc12 [Example 281-67]	6.00 to 7.00	> 7.00
Cc1ccc(-c2noc([C@H]3C[C@@H](OC(F)(F)F)C3)n2)cc1NC(=O)c1cnn2ccc(N3CC4(CN(C(=O)OC(C)(C)C)C4)C3)cc12 [Example 258]	6.00 to 7.00	6.00 to 7.00
Cc1ccc(-c2noc([C@H]3C[C@@H]3F)n2)cc1NC(=O)c1cnc(-c2ccc3[nH]c4c(c3c2)CCNC4)o1 [Example 308-57]	> 7.00	6.00 to 7.00
Cc1ccc(-c2noc([C@H]3C[C@@H]3F)n2)cc1NC(=O)c1cnn2ccc(CN3CCOCC3)cc12 [Example 70]	> 7.00	6.00 to 7.00
Cc1ncc(-c2noc([C@H]3C[C@@H]3F)n2)cc1NC(=O)c1cnn2ccc(N3CC4(COC4)C3)cc12 [Example 268]	6.00 to 7.00	6.00 to 7.00
Cc1ccc(-c2noc([C@H]3C[C@@H]3F)n2)cc1NC(=O)c1cnc2n1CCc1ccccc1-2 [Example 100]	> 7.00	6.00 to 7.00
Cc1ccc(-c2noc([C@H]3C[C@@H]3F)n2)cc1NC(=O)c1cnn2cc(C#N)ccc12 [Example 128]	< 6.00	6.00 to 7.00
